Entries after “also recorded” stand apart in the source; their conditions may differ.
Assays:
[1] = molecular target: T1, Cardiac Na+ channels (Homo sapiens, UniProt Q14524); assay: Cardiac sodium currents in human iPSC-derived cardiomyocytes; assay type: cell-based; conditions: for IC50: human iPSC cardiomyocytes; for inhibition at 3 µM: values in brackets, read-out: Cardiac Na+ (%) inh. at 3 μM
T1 construct: host or cells: human iPSC-derived cardiomyocytes
Procedure: Cardiac sodium channels play a critical role in heart contraction. Inhibition of these sodium channels could potentially cause severe unwanted side effects. Therefore the representative example compounds in Table 2 were tested in cardiac sodium channels. Cardiomyocytes derived from human induced pluripotent stem cells (iPSC-CM) were obtained from Axol Bioscience Ltd (Cambridge, UK). Cells were thawed and grown on matrigel coated glass coverslips in Cardiomyocyte Maintenance Medium (Axol Bioscience). […] The internal solution was composed (in mM) of 120 KF, 10 HEPES, 11 EGTA, 1 CaCl2, 1 MgCl2, 10 TEA-Cl (pH 7.2 adjusted with KOH). Sodium currents were recorded at a holding potential of −100 mV and depolarized to −20 mV. Cells were incubated with example compounds until currents reached a steady-state level. To determine IC50 values, example compounds were applied gradually from low to high concentrations. The current responses were normalized to the control, percent inhibition was calculated and a sigmoidal dose response curve was plotted to determine IC50 values as described above.

[2] = system: PTZ-induced seizures in mice; assay: Pentylenetetrazol (PTZ)-induced seizures in mice; assay type: in vivo, mouse; conditions: 30 mg/kg I.P., PTZ 40 mg/kg I.P.; for fatality latency / fatality rate: 20 min cutoff
Procedure: FIG. 10. […] Sixty minutes (min) prior to receiving PTZ (40 mg/kg, I.P.), each mouse was pretreated with either an Example compound, ML218, Z944 or vehicle (2% DMSO in 0.5% HPC). Fatality rate (%) of mice in each group that dies within the 20 minutes observation period—was calculated. Both fatality rate and latency (data not shown) to death were used to evaluate the Example compound's ability to prevent death resulting from PTZ-induced seizures. A cutoff of 20 minutes was set for observational and statistical analysis purposes.
It is well known that antiepileptics, e.g. carbamazepine, lamotrigine and gabapentin are used for the treatment of neuropathic pain (Xie et al., 1995, Caviedes and Herranz, 2001). T-channel overactivation is involved in the generation of seizure activity (Huguenard, 1998, Cribbs et al., 2000, Perez-Reyes et al., 2009, Perez-Reyes, 2010). […] Fatality latency and rate—the percentage (%) of mice in each treatment group that died within a 20 minute cutoff of the observational period, were recorded and calculated. Averaged fatality latency and rate of each treatment group was used to evaluate the Example compound's ability to either prevent or delay the onset of PTZ-induced seizures and death.

[3] = system: SNI rats; assay: Spared nerve injury (SNI) rats, von Frey monofilament test; assay type: in vivo, rat
Procedure: FIG. 3B. Mechanical pain threshold assessment (von Frey monofilament test) of SNI rats' left hindpaws. Each SNI rat received either EXAMPLE-106, -107, and -115 (each 30 mg/kg, 1 mL I.P.), or vehicle (1 mL I.P. 2% DMSO in 0.5% HPC). Sham rats also received vehicle I.P. injections. […] The sham-vehicle serves as a positive control. Thermal and mechanical pain responses were measured once every hour for 8 consecutive hours after I.P. treatment (n=8 rats per treatment group).
FIG. 4. Mechanical pain threshold assessment (von Frey monofilament test) of left hindpaws in another cohort of SNI rats. Each SNI rat received either EXAMPLE-128, -130, -132, or Z944 (as a reference compound, each 10 mg/kg, 2 mL oral gavage, P.O.). […] Mechanical pain responses were measured at pre-dosing, 1, 2, 4, and 6 hours post-treatment using von Frey monofilament test (n=8 rats per group).
In additional examples shown here, the analgesic effects were further evaluated in another rat species. Baseline thermal and mechanical thresholds of male rats (Sprague-Dawley rats, 275 g-325 g, Harlan) were taken prior to surgery; baseline thresholds were measured on the rats' left hindpaws. Thirty-two rats underwent the SNI surgery on their left hind leg; 8 rats underwent surgery without injury of the nerves as a sham group. Two weeks post-surgery, the thermal thresholds of each rat were reassessed. […] Each rat received either EXAMPLE-106, -107, -115 (each 30 mg/kg, 1 mL I.P.), or vehicle (2% DMSO in 0.5% HPC). Thermal and mechanical thresholds were measured at 1, 2, 3, 4, 5, 6, 7, and 8 hours post-treatment/dosing. […] The drug actions started around 1 hour post-injection and peaked between 2 and 3 hours, and the drug effects gradually declined to pre-treatment levels over 6-7 hours (FIGS. 3A and B).
In another cohort of SNI rats ((n=8 per group)), mechanical thresholds were measured at pre-dosing, 1, 2, 4, and 6 hours post-treatment using von Frey monofilament test.

T1 sequence (Q14524 whole entry): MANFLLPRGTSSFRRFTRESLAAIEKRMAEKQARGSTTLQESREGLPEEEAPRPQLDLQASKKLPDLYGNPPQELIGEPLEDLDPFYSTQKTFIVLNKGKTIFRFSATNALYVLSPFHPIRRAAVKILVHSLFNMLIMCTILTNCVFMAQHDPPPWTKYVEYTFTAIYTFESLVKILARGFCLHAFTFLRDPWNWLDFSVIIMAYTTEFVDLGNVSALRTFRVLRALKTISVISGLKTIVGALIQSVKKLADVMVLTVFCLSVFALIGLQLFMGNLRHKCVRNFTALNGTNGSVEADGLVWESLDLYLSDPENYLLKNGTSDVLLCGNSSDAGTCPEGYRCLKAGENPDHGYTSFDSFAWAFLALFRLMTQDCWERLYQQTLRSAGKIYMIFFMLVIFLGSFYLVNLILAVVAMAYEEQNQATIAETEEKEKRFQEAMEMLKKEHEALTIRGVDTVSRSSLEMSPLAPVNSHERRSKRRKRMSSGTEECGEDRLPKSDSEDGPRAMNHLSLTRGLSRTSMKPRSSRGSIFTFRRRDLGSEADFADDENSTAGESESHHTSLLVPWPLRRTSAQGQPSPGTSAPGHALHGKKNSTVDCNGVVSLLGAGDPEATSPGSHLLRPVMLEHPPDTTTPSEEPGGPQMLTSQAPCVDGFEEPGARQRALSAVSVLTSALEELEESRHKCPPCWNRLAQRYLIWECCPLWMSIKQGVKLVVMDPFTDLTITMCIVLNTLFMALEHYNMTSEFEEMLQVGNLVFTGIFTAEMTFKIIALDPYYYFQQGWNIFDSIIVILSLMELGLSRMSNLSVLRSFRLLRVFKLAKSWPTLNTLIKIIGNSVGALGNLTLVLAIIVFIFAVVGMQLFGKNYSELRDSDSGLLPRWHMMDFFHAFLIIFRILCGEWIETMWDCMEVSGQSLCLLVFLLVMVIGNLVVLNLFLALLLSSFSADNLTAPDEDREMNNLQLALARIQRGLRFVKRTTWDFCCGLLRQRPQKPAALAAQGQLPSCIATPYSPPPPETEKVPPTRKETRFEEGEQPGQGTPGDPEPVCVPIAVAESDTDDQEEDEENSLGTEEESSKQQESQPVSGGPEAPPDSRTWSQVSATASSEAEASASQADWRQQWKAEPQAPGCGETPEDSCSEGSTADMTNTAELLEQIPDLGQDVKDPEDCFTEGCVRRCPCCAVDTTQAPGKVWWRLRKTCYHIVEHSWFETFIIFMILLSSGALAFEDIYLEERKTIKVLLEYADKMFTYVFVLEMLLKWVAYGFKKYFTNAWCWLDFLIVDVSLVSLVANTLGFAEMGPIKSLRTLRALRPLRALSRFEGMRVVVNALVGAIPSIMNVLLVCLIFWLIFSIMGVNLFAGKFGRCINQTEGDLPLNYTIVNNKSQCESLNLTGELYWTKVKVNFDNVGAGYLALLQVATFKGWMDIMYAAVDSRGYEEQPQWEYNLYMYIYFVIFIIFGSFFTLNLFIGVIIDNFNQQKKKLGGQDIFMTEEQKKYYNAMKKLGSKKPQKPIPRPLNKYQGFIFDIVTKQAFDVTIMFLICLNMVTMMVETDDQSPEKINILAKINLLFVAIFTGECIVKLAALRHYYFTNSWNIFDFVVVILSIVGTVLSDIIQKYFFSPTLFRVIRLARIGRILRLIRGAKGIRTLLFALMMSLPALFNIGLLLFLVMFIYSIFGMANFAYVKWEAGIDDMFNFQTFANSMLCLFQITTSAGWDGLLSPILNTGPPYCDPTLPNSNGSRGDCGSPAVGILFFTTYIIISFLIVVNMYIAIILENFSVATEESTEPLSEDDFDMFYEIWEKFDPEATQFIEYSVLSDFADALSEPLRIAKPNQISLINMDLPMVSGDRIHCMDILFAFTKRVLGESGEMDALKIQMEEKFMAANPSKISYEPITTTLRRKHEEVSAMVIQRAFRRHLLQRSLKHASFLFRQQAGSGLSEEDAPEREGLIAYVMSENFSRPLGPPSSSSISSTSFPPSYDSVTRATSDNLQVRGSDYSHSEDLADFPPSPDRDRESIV

SMILES	IC50 [1]	latency to seizures [2]	fatality latency [2]	fatality rate [2]	duration of elevated mechanical thresholds ([3]; 10 mg/kg P.O.)	mechanical pain threshold of left hindpaw (allodynia) ([3]; 10 mg/kg oral gavage, P.O., 10 mg/kg)	inhibition at 3 µM [1]	start of drug action post-injection ([3]; 30 mg/kg I.P., thermal and mechanical thresholds)	mechanical pain threshold of left hindpaw (allodynia) ([3]; 30 mg/kg, 1 mL I.P.)
CC(C)(C)NC(=O)CN1CCC2(CC1)C[C@H]2NC(=O)c1cc(Cl)cc(Cl)c1 (single isomer, unassigned) [Example 57, (R)—N-(6-(2-(tert-Butylamino)-2-oxoethyl)-6-azaspiro[2.5]octan-1-yl)-3,5-dichlorobenzamide or (S)—N-(6-(2-(tert-Butylamino)-2-oxoethyl)-6-azaspiro[2.5]octan-1-yl)-3,5-dichlorobenzamide]	50.9 µM	significantly prolonged latencies to seizures	prolonged fatality latencies	decreased the fatality rate					
CC(C)(C)NC(=O)CN1CCC2(CC1)C[C@H]2NC(=O)c1cc(F)cc(Cl)c1 (single isomer, unassigned) [Example 129, (R)—N-(6-(2-(tert-Butylamino)-2-oxoethyl)-6-azaspiro[2.5]octan-1-yl)-3-chloro-5-fluorobenzamide or (S)—N-(6-(2-(tert-Butylamino)-2-oxoethyl)-6-azaspiro[2.5]octan-1-yl)-3-chloro-5-fluorobenzamide]		significantly prolonged latencies to seizures	prolonged fatality latencies	decreased the fatality rate					
CC(C)(C)NC(=O)CN1CCC2(CC1)C[C@H]2NC(=O)c1cc(F)cc(C(F)(F)F)c1 (single isomer, unassigned) [Example 130, (R)—N-(6-(2-(tert-Butylamino)-2-oxoethyl)-6-azaspiro[2.5]octan-1-yl)-3-fluoro-5-(trifluoromethyl)benzamide or (S)—N-(6-(2-(tert-Butylamino)-2-oxoethyl)-6-azaspiro[2.5]octan-1-yl)-3-fluoro-5-(trifluoromethyl)benzamide]	31.4 µM	significantly prolonged latencies to seizures	prolonged fatality latencies	decreased the fatality rate	approximately 4 hours	elevated mechanical thresholds; also recorded: reduced allodynia			
CC(C)(C)NC(=O)CN1CCC2(CC1)C[C@H]2NC(=O)c1cc(C(F)(F)F)cc(C(F)(F)F)c1 (single isomer, unassigned) [Example 144, ((R)—N-(6-(2-(tert-butylamino)-2-oxoethyl)-6-azaspiro[2.5]octan-1-yl)-3,5-bis(trifluoromethyl)benzamide or (S)—N-(6-(2-(tert-butylamino)-2-oxoethyl)-6-azaspiro[2.5]octan-1-yl)-3,5-bis(trifluoromethyl)benzamide]	19.2 µM	significantly prolonged latencies to seizures	prolonged fatality latencies	decreased the fatality rate					
CC(C)(C)NC(=O)CN1CCC2(CC1)C[C@H]2NC(=O)C12CC3CC(CC(C3)C1)C2 (single isomer, unassigned) [Example 145, N—((R)-6-(2-(tert-butylamino)-2-oxoethyl)-6-azaspiro[2.5]octan-1-yl)adamantane-1-carboxamide or N—((S)-6-(2-(tert-butylamino)-2-oxoethyl)-6-azaspiro[2.5]octan-1-yl)adamantane-1-carboxamide]		significantly prolonged latencies to seizures	prolonged fatality latencies	decreased the fatality rate			0%		
CC(C)(C)CCN1CCC2(CC1)C[C@H]2NC(=O)c1cc(C(F)(F)F)cc(C(F)(F)F)c1 (single isomer, unassigned) [Example 146, (R)—N-(6-(3,3-dimethylbutyl)-6-azaspiro[2.5]octan-1-yl)-3,5-bis(trifluoromethyl)benzamide or (S)—N-(6-(3,3-dimethylbutyl)-6-azaspiro[2.5]octan-1-yl)-3,5-bis(trifluoromethyl)benzamide]	27.8 µM	significantly prolonged latencies to seizures	prolonged fatality latencies	decreased the fatality rate					
CC(C)(C)CCN1CCC2(CC1)C[C@H]2NC(=O)c1cc(C(F)(F)F)ccc1Cl (single isomer, unassigned) [Example 147, (R)-2-Chloro-N-(6-(3,3-dimethylbutyl)-6-azaspiro[2.5]octan-1-yl)-5-(trifluoromethyl)benzamide or (S)-2-Chloro-N-(6-(3,3-dimethylbutyl)-6-azaspiro[2.5]octan-1-yl)-5-(trifluoromethyl)benzamide]	43 µM	significantly prolonged latencies to seizures	prolonged fatality latencies	decreased the fatality rate					
CC(C)(C)NC(=O)CN1CCC2(CC1)CC2NC(=O)c1cc(F)cc(Cl)c1 (stereo not drawn) [Example 17, N-(6-(2-(tert-Butylamino)-2-oxoethyl)-6-azaspiro[2.5]octan-1-yl)-3-chloro-5-fluorobenzamide]		significantly prolonged latencies to seizures	prolonged fatality latencies	decreased the fatality rate					
CC(C)(C)CCN1CCC2(CC1)CC2NC(=O)c1cc(F)cc(Cl)c1 (stereo not drawn) [Example 28, 3-Chloro-N-(6-(3,3-dimethylbutyl)-6-azaspiro[2.5]octan-1-yl)-5-fluorobenzamide]	37.2 µM	significantly prolonged latencies to seizures	prolonged fatality latencies	decreased the fatality rate					
O=C(Nc1nnc(-c2ccccc2)o1)c1ccc(Cl)s1 [Example 115, 5-Chloro-N-(5-phenyl-1,3,4-oxadiazol-2-yl)thiophene-2-carboxamide]								around 1 hour	elevated both thermal and mechanical thresholds; also recorded: reduced allodynia
CC(C)(C)NC(=O)CN1CCC2(CC1)CC2C(=O)Nc1cc(F)cc(C(F)(F)F)c1 (stereo not drawn) [Example 141, 6-(2-(tert-Butylamino)-2-oxoethyl)-N-(3-fluoro-5-(trifluoromethyl)phenyl)-6-azaspiro[2.5]octane-1-carboxamide]		significantly prolonged latencies to seizures	prolonged fatality latencies	decreased the fatality rate			28%		

Source: US10562857B2 (AFASCI, Inc., priority 2015, dated 2020)
